Values joined by “and” are separate entries in the source; they are usually repeats but may differ in a detail not shown here. Equal entries are not always repeated.

For series [1], the target named is CRISPR/Cas9 from Streptococcus pyogenes (SpyCas9) (Streptococcus pyogenes serotype M1, UniProt Q99ZW2). The experiment in a line: cell-based.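 Further: Cell-based reporter with a SpyCas9 target site placed in EGFP, where NHEJ repair of the cut restores the reading frame, read-out is the share of EGFP-positive cells, lowered by inhibitors.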
CRISPR/Cas9 from Streptococcus pyogenes (SpyCas9), sequence (Q99ZW2 whole entry): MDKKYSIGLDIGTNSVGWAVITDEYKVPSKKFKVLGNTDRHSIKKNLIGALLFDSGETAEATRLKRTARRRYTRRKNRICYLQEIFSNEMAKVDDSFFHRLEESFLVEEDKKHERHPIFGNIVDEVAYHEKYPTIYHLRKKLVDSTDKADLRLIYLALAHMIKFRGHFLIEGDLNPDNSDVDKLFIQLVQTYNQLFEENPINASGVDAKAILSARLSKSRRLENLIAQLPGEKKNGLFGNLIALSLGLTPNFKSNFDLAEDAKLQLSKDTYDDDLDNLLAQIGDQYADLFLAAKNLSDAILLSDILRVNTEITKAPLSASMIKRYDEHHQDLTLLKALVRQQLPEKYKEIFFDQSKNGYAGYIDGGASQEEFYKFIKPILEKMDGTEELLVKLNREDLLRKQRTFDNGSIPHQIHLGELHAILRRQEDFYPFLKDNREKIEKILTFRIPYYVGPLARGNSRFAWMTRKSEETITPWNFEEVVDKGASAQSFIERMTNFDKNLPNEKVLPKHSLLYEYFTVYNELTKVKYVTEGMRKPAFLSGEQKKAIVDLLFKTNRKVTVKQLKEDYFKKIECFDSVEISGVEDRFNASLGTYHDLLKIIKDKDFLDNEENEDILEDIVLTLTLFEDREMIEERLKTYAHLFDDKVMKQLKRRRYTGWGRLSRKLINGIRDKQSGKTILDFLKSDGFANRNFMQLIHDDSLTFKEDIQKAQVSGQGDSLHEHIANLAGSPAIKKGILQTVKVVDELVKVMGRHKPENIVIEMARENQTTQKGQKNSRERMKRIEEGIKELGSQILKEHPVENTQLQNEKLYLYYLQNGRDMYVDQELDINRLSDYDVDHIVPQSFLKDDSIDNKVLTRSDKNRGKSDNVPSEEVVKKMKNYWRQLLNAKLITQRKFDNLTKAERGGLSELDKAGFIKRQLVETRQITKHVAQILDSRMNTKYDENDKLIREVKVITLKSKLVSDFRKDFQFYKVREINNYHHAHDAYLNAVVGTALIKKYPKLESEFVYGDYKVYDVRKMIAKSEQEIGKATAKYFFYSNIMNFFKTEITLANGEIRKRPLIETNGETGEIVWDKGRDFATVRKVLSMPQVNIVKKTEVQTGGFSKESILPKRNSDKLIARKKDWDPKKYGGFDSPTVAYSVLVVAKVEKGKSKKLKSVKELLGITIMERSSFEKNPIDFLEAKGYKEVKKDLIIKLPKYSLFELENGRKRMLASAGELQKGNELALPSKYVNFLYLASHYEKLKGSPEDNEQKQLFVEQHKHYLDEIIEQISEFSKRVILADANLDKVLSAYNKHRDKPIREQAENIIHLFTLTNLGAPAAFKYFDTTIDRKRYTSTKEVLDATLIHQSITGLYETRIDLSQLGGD
Description: The CRISPR/Cas9 recognition site was inserted into the EGFP coding sequence so that the downstream sequence of the CRISPR/Cas9 recognition site was inside the box. The EGFP sequence was cleaved by Cas9 to produce double-strand breaks (DSBs), which would repair one of the two DNA repair mechanisms in the cell: non-homologous end joining (NHEJ) or homologous directed repair (HDR). The insertion or deletion introduced by NHEJ would restore the open reading frame of EGFP, thus activating EGFP fluorescence (FIG. 1).
In series [2] the target is T1, SpyCas9 (Streptococcus pyogenes serotype M1, UniProt Q99ZW2).
T1 construct: expressed in transfected cells; host or cells: HEK293
T1 sequence (Q99ZW2 whole entry): as above
The experiment in a line: Inhibition of plasmid-expressed SpyCas9 editing of endogenous genes in HEK293 cells, T7E1 test. The following applies: 10 μM compound. In kind it is cell-based. Here is the method: (§1) HEK293 cells (10^5 cells/well) were seeded on a 24-well plate. 24 hours after inoculation, cells were transfected with 200 ng AAVS1-AS2 and 200 ng pST-Cas9 plasmid or 200 ng EMX1 and 200 ng pST-Cas9 plasmid in Opti-MEM medium. 6 hours after transfection, DMEM supplemented with 10% FBS and 10 μM drug (Compound 49) was used to replace Opti-MEM. The positive control for Cas9 activity was 200 ng AAVS1-AS2 and 200 ng pST-Cas9 plasmid or 200 ng EMX1 and 200 ng pST-Cas9 plasmid without drug. After the gene editing was completed, the cell genomic DNA was extracted, and the gene editing efficiency was tested by the T7E1 method (see Guschin, D. Y. et al. Methods Mol. Biol. 649, 247-256 (2010))).
The method of this example was the same as in Example 2.

Series [3] deals with T1, SpyCas9. Nature of the series: Specificity of SpyCas9-based gene editing (targeted/off-target editing), T7E1 test. In kind it is cell-based. The following applies: HEK293 cells. As for the experimental part: as §1
SpyCas9 was lipid transfected into HEK293 cells or nuclear transfected into K562 cells to determine the effect of compound 49 on the specificity of SpyCas9 in multiple cell lines on different genes. The inhibitor was added to the culture 6 hours after transfection. The detection method is the same as in Example 2.

Series [4] concerns the target T2, Staphylococcus aureus Cas9 (SaCas9) (Staphylococcus aureus, UniProt J7RUA5).
T2 construct: expressed in transfected cells; host or cells: HEK293 (method similar to 2.1)
Nature of the series: Inhibition of plasmid-expressed SaCas9 gene editing in cell culture, T7E1 test. In kind it is cell-based. To be noted: plasmid containing SaCas9; group without drug 14%. Here is the method:
as §1
The method of this example was similar to 2.1, except that pST-Cas9 was replaced with a plasmid containing SaCas9. The detection method was the same as in Example 2.

The test system of the next series is base editing system. The experiment in a line: Regulation of base editing in HEK293T cells, deep sequencing. Format: cell-based.
The conditions of series [5]: humans; cited from earlier work.
[6] abbreviates: HEK293 cells transfected with AAVS1-AS2 and pST-Cas9 plasmids, no-drug group 22.4% and 35.1%.
[7] abbreviates: HEK293 cells transfected with EMX1 and pST-Cas9 plasmids, no-drug group 26.5% and 27.9%.

T2 sequence (J7RUA5 whole entry): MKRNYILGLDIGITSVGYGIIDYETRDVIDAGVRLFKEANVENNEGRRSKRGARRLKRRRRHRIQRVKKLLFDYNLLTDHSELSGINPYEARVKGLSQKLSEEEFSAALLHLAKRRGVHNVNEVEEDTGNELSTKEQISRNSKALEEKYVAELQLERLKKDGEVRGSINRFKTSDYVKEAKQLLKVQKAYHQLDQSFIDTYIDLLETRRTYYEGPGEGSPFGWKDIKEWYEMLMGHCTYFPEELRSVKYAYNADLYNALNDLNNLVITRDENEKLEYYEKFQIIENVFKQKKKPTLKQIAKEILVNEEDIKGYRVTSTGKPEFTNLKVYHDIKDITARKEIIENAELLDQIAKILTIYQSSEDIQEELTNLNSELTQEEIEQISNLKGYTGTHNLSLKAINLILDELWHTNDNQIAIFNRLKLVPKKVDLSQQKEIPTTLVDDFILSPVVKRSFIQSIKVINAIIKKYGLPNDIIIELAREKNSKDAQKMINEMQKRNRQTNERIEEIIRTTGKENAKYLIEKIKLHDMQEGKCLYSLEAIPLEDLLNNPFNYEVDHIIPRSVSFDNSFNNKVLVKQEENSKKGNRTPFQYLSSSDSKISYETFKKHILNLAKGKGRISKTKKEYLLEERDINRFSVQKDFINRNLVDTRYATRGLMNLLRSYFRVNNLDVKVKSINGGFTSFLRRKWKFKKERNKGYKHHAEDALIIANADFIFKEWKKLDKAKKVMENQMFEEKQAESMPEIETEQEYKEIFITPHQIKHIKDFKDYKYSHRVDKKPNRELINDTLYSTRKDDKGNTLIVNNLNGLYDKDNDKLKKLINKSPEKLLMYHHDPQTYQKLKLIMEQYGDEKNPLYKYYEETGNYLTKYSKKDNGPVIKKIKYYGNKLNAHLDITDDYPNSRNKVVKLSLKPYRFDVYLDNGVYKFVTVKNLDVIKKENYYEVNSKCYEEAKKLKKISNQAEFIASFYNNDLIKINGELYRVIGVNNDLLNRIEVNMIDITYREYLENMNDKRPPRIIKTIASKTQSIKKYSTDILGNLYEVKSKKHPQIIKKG

In series [1], `CC1=CC(=O)c2c(O)cccc2C1=O` [Compound 48] gave an IC50 of 1000 to 10000 nM. Also, the gene modification rate at SpyCas9 [2] (setting [6]) and on SpyCas9 [2] (setting [7]) was 0% each time.
As to `O=C(/C=C\n1cnc(-c2cc(C(F)(F)F)cc(C(F)(F)F)c2)n1)NNc1cnccn1` [Compound 49], the IC50 in series [1] was less than 1000 nM. Further, the gene modification rate is less than 1% at SpyCas9 [2] (setting [6]); 5.6% and 3.8% at SpyCas9 [2] (setting [7]); less than 0.5% in series [4]. Moreover, the “ratio of the number of scheduled gene editing at specific sites to the number of scheduled gene editing at non-specific sites” value on SpyCas9 [3] (after compound added, 2.4 when no compound was added) was determined as 7. The “raise of the specific/non-specific site editing ratio” value on SpyCas9 [3] (with compound versus no compound) was determined as 2.9 fold. Besides, the “decrease rate of C→T conversion frequency” value in the series on base editing system (sg47, C on 5th site, 500 nM compound) amounted to 50%. This molecule came in with a C→T conversion frequency with base editing system (sg47, C on 5th site, 500 nM compound, 18% without compound) of 9%. Besides, the indel frequency result with base editing system (sg48, 500 nM compound) is recorded as “reduced overall”. In addition, the “C→T conversion inhibition efficiency” value in the series with base editing system (sgMSSK1-5, C on 5th site in the window, 500 nM compound) was 30%; with base editing system (sgMSSK1-5, C on 11th site out-of-window, 500 nM compound) it was 50%. Besides, the “safety in clinical testing” value in series [5] is reported as “safe for humans”.

In general, IC50 refers to the concentration that inhibits the measured activity by half.

Source of the values: patent publication US12534742B2, “Compound for regulating gene editing efficiency and application thereof” (Shanghai Institute of Organic Chemistry, Chinese Academy of …, priority 2018, dated 2026).
